According to US20260193268A1, “TRICYCLIC PI3Ka INHIBITOR, PREPARATION METHOD THEREFOR, AND PHARMACEUTICAL USE THEREOF” (WIGEN BIOMEDICINE TECHNOLOGY (SHANGHAI) CO., LTD., priority 2022, published 2026):
Like-named read-outs stand apart in the source and are kept apart here.

Tests used:
[1] = system: HCC1954 cells (with PI3Kα H1047R mutation); test: In vitro inhibition of HCC1954 cell proliferation (CellTiter-Lumi); assay type: cell-based; settings: Homo sapiens, HCC1954, 144 h, HCC1954 cells, 144 h, CellTiter-Lumi
Method: Assay for In Vitro Inhibition of HCC1954 Cell Proliferation by Compounds of the Present Disclosure
The growth of the cells was evaluated, and the IC50 for the inhibition of cell growth by the compounds was calculated.

[2] = system: MCF-7 cells (with PI3Kα E545K mutation); test: In vitro inhibition of MCF-7 cell proliferation (CellTiter-Lumi); assay type: cell-based; settings: Homo sapiens, MCF7, 144 h
Method: Biological Example 3. Assay for In Vitro Inhibition of MCF-7 Cell Proliferation by Compounds of the Present Disclosure
MCF-7 cells (with PI3Kα E545K mutation) were seeded into a 384-well plate (Fisher 142762) at 2000 cells per well. The next day, serially diluted compounds were added, and 144 h after the addition, CellTiter-Lumi (Beyotime C0068XL) was added to measure the ATP content in the cells. The growth of the cells was evaluated, and the IC50 for the inhibition of cell growth by the compounds was calculated.

[3] = numeric values, read-out: Inhibitory activity against HCC1954 cells (IC50)
[4] = numeric values, read-out: Inhibitory activity against MCF-7 cells (IC50)
[5] = class symbols, read-out: Inhibitory activity against HCC1954 cells (IC50), class symbols
[6] = class symbols, read-out: Inhibitory activity against MCF-7 cells (IC50), class symbols

C=CC(=O)Nc1ncc(N2CC(N3CCN(c4ccc5c(c4)-c4nc(N6C(=O)OC[C@H]6C(F)F)cn4CCO5)CC3)C2)cn1 [Compound 162]
IC50 [1, 3]: 3.4 nM | IC50 [2, 4]: 0.4 nM

C=CC(=O)Nc1ncc(N2CC(N3CCN(c4ccc5c(c4)-c4nc(N6C(=O)OC[C@H]6C(F)F)cn4CCO5)CC3)C2)cc1C [Compound 163]
IC50 [1, 3]: 6.6 nM | IC50 [2, 4]: 0.5 nM

C=CC(=O)N1CCn2nc(N3CC(N4CCN(c5ccc6c(c5)-c5nc(N7C(=O)OC[C@H]7C(F)F)cn5CCO6)CC4)C3)cc2C1 [Compound 164]
IC50 [1, 3]: 53 nM | IC50 [2, 4]: 3 nM

CC#CC(=O)N1CCc2cc(N3CC(N4CCN(c5ccc6c(c5)-c5nc(N7C(=O)OC[C@H]7C(F)F)cn5CCO6)CC4)C3)ccc21 [Compound 165]
IC50 [1, 3]: 30 nM | IC50 [2, 4]: 3.4 nM

C=CC(=O)N1CCc2c1ccc(N1CC(N3CCN(c4ccc5c(c4)-c4nc(N6C(=O)OC[C@H]6C(F)F)cn4CCO5)CC3)C1)c2F [Compound 166]
IC50 [1, 3]: 9.4 nM | IC50 [2, 4]: 1.2 nM

C=CC(=O)N1CCc2cc(N3CC(N4CCN(c5ccc6c(c5)-c5nc(N7C(=O)OC[C@H]7C(F)F)cn5CCO6)CC4)C3)cnc21 [Compound 167]
IC50 [1, 3]: 544 nM | IC50 [2, 4]: 219 nM

COCC#CC(=O)Nc1ccc(N2CC(N3CCN(c4ccc5c(c4)-c4nc(N6C(=O)OC[C@H]6C(F)F)cn4CCO5)CC3)C2)cc1 [Compound 168]
IC50 [1, 3]: 4.9 nM | IC50 [2, 4]: 6.9 nM

C=CC(=O)N1CCc2nc(N3CC(N4CCN(c5ccc6c(c5)-c5nc(N7C(=O)OC[C@H]7C(F)F)cn5CCO6)CC4)C3)ccc21 [Compound 169]
IC50 [1, 3]: 1 nM | IC50 [2, 4]: 0.1 nM

NC/C=C/C(=O)Nc1ccc(N2CC(N3CCN(c4ccc5c(c4)-c4nc(N6C(=O)OC[C@H]6C(F)F)cn4CCO5)CC3)C2)cc1 [Compound 170]
IC50 [1, 3]: 77 nM | IC50 [2, 4]: 17 nM

CC(C)(C=C(C#N)C(=O)Nc1ccc(N2CC(N3CCN(c4ccc5c(c4)-c4nc(N6C(=O)OC[C@H]6C(F)F)cn4CCO5)CC3)C2)cc1)N1CCC1 [Compound 171]
IC50 [1, 3]: 14 nM | IC50 [2, 4]: 4.5 nM

C=CC(=O)Nc1ccc(N2CC(N3CCN(c4ccc5c(c4)-c4nc(N6C(=O)OC[C@H]6C(F)F)cn4CCO5)CC3)C2)c(C#N)c1 [Compound 172]
IC50 [1, 3]: 3.6 nM | IC50 [2, 4]: 0.2 nM

C=CC(=O)Nc1ccc(N2CC(N3CCN(c4ccc5c(c4)-c4nc(N6C(=O)OC[C@H]6C(F)F)cn4CCO5)CC3)C2)cc1OC [Compound 173]
IC50 [1, 3]: 4 nM | IC50 [2, 4]: 0.3 nM

C=CC(=O)Nc1ccc(N2CCN(c3ccc4c(c3)-c3nc(N5C(=O)OC[C@H]5C(F)F)cn3CCO4)CC2)cc1 [Compound 174]
IC50 [1, 3]: 166 nM | IC50 [2, 4]: 26 nM

C=CC(=O)Nc1ccc(N2CC(N3CCN(c4ccc5c(c4)-c4nc(N6C(=O)OC[C@H]6CF)cn4CCO5)CC3)C2)cc1 [Compound 176]
IC50 [1, 3]: 4.9 nM | IC50 [2, 4]: 0.2 nM

C=CC(=O)N1CCc2cc(N3CC(N4CCN(c5ccc6c(c5)-c5nc(N7C(=O)OC[C@H]7C(F)F)cn5CCO6)CC4)C3)c(F)cc21 [Compound 177]
IC50 [1, 3]: 2.2 nM | IC50 [2, 4]: 0.1 nM

C=CC(=O)Nc1ccc(N2CC(N3CCN(c4ccc5c(c4)-c4nc(N6C(=O)CC[C@H]6C(F)F)cn4CCO5)CC3)C2)cc1 [Compound 178]
IC50 [1, 5]: < 50 nM | IC50 [2, 6]: < 50 nM

C=CC(=O)Nc1ccc(C#CC2CCN(c3ccc4c(c3)-c3nc(N5C(=O)OC[C@H]5C(F)F)cn3CCO4)CC2)cc1 [Compound 179]
IC50 [1, 5]: 50 to 100 nM | IC50 [2, 6]: 50 to 100 nM

C=CC(=O)Nc1ccc(C2CN(c3ccc(-c4ccc5c(c4)-c4nc(N6C(=O)OC[C@H]6C(F)F)cn4CCO5)cc3)C2)cc1 [Compound 181]
IC50 [1, 5]: 50 to 100 nM | IC50 [2, 6]: < 50 nM

C=CC(=O)Nc1ccc(N2CCN(CC#Cc3ccc4c(c3)-c3nc(N5C(=O)OC[C@H]5C(F)F)cn3CCO4)CC2)cc1 [Compound 182]
IC50 [1, 5]: 50 to 100 nM | IC50 [2, 6]: 50 to 100 nM

C=CC(=O)Nc1ccc(N2CCC3(CC2)CCN(c2ccc4c(c2)-c2nc(N5C(=O)OC[C@H]5C(F)F)cn2CCO4)CC3)cc1 [Compound 183]
IC50 [1, 3]: 219 nM | IC50 [2, 4]: 21 nM

N#C/C(=C\CN)C(=O)Nc1ccc(N2CC(N3CCN(c4ccc5c(c4)-c4nc(N6C(=O)OC[C@H]6C(F)F)cn4CCO5)CC3)C2)cc1 [Compound 184]
IC50 [1, 5]: < 50 nM | IC50 [2, 6]: < 50 nM

CNCC#CC(=O)Nc1ccc(N2CC(N3CCN(c4ccc5c(c4)-c4nc(N6C(=O)OC[C@H]6C(F)F)cn4CCO5)CC3)C2)cc1 [Compound 185]
IC50 [1, 5]: < 50 nM | IC50 [2, 6]: < 50 nM

CNC/C=C/C(=O)Nc1ccc(N2CC(N3CCN(c4ccc5c(c4)-c4nc(N6C(=O)OC[C@H]6C(F)F)cn4CCO5)CC3)C2)cc1 [Compound 186]
IC50 [1, 3]: 32 nM | IC50 [2, 4]: 4.3 nM

CC=C(C#N)C(=O)Nc1ccc(N2CC(N3CCN(c4ccc5c(c4)-c4nc(N6C(=O)OC[C@H]6C(F)F)cn4CCO5)CC3)C2)cc1 [Compound 187]
IC50 [1, 5]: < 50 nM | IC50 [2, 6]: < 50 nM

CC(C)=CC(=O)CCCC(=O)N1CCC(/C=C/c2ccc3c(c2)-c2nc(N4C(=O)OC[C@H]4C(F)F)cn2CCO3)CC1 [Compound 189]
IC50 [1, 5]: 50 to 100 nM | IC50 [2, 6]: < 50 nM

CC(C)=CC(=O)CCCC(=O)N1CCN(Cc2ccc3c(c2)-c2nc(N4C(=O)OC[C@H]4C(F)F)cn2CCO3)CC1 [Compound 190]
IC50 [1, 5]: 50 to 100 nM | IC50 [2, 6]: < 50 nM

CC(C)=CC(=O)CCC(=O)N1CCC(C#Cc2ccc3c(c2)-c2nc(N4C(=O)OC[C@H]4C(F)F)cn2CCO3)CC1 [Compound 191]
IC50 [1, 5]: 50 to 100 nM | IC50 [2, 6]: < 50 nM

CC(C)=CC(=O)CCC(=O)N1CCN(Cc2ccc3c(c2)-c2nc(N4C(=O)OC[C@H]4C(F)F)cn2CCO3)CC1 [Compound 192]
IC50 [1, 5]: 50 to 100 nM | IC50 [2, 6]: < 50 nM

C=CC(=O)N1CCc2cc(N3CC(N4CCN(c5ccc6c(c5)-c5nc(N7C(=O)OC[C@H]7C(F)F)cn5CCO6)CC4)C3)cc(C#N)c21 [Compound 193]
IC50 [1, 5]: < 50 nM | IC50 [2, 6]: < 50 nM

C=CC(=O)Nc1ccc(N2CC(N3CCN(c4ccc5c(c4)-c4nc(N6C(=O)OC[C@H]6C(F)F)cn4CCO5)CC3)C2)cc1Cl [Compound 194]
IC50 [1, 3]: 1.2 nM | IC50 [2, 4]: 0.1 nM

C=CC(=O)Nc1ccc(N2CC(N3CCN(c4ccc5c(c4)-c4nc(N6C(=O)OC[C@H]6C(F)F)cn4CCO5)CC3)C2)c(Cl)c1 [Compound 195]
IC50 [1, 3]: 4.6 nM | IC50 [2, 4]: 0.3 nM

C=CC(=O)Nc1ccc(N2CCN(c3ccc(-c4ccc5c(c4)-c4nc(N6C(=O)OC[C@H]6C(F)F)cn4CCO5)cc3)CC2)cc1 [Compound 196]
IC50 [1, 5]: > 1000 nM | IC50 [2, 6]: > 1000 nM

C=CC(=O)N1CC(N2CCC(c3ccc(-c4ccc5c(c4)-c4nc(N6C(=O)OC[C@H]6C(F)F)cn4CCO5)cc3)CC2)C1 [Compound 197]
IC50 [1, 5]: 100 to 1000 nM | IC50 [2, 6]: < 50 nM

C=CC(=O)N1CCC(C2CN(c3ccc(-c4ccc5c(c4)-c4nc(N6C(=O)OC[C@H]6C(F)F)cn4CCO5)cc3)C2)CC1 [Compound 198]
IC50 [1, 5]: 100 to 1000 nM | IC50 [2, 6]: 50 to 100 nM

C=CC(=O)N1CC(C2CCN(c3ccc(-c4ccc5c(c4)-c4nc(N6C(=O)OC[C@H]6C(F)F)cn4CCO5)cc3)CC2)C1 [Compound 199]
IC50 [1, 5]: 100 to 1000 nM | IC50 [2, 6]: < 50 nM

C=CC(=O)Nc1ccc2c(c1)CCN(CC#Cc1ccc3c(c1)-c1nc(N4C(=O)OC[C@H]4C(F)F)cn1CCO3)C2 [Compound 200]
IC50 [1, 5]: 50 to 100 nM | IC50 [2, 6]: < 50 nM

C=CC(=O)Nc1ccc(C2CN(CC#Cc3ccc4c(c3)-c3nc(N5C(=O)OC[C@H]5C(F)F)cn3CCO4)C2)cc1 [Compound 201]
IC50 [1, 5]: 50 to 100 nM | IC50 [2, 6]: < 50 nM

C=CC(=O)Nc1ccc(N2CCC(C#Cc3ccc4c(c3)-c3nc(N5C(=O)OC[C@H]5C(F)F)cn3CCO4)CC2)cc1 [Compound 202]
IC50 [1, 5]: 50 to 100 nM | IC50 [2, 6]: < 50 nM

C=CC(=O)Nc1ccc(N2CC(C#Cc3ccc4c(c3)-c3nc(N5C(=O)OC[C@H]5C(F)F)cn3CCO4)C2)cc1 [Compound 203]
IC50 [1, 5]: 50 to 100 nM | IC50 [2, 6]: < 50 nM

C=CC(=O)Nc1ccc2c(c1)CCN(C1CCN(c3ccc4c(c3)-c3nc(N5C(=O)OC[C@H]5C(F)F)cn3CCO4)CC1)C2 [Compound 204]
IC50 [1, 5]: 50 to 100 nM | IC50 [2, 6]: < 50 nM

C=CC(=O)Nc1ccc2c(c1)CCN2CCN1CCN(c2ccc3c(c2)-c2nc(N4C(=O)OC[C@H]4C(F)F)cn2CCO3)CC1 [Compound 205]
IC50 [1, 5]: 50 to 100 nM | IC50 [2, 6]: < 50 nM

C=CC(=O)N1CCc2cc(N3CCN(c4ccc5c(c4)-c4nc(N6C(=O)OC[C@H]6C(F)F)cn4CCO5)CC3)ccc2C1 [Compound 206]
IC50 [1, 5]: 50 to 100 nM | IC50 [2, 6]: < 50 nM

C=CC(=O)N1CCc2cc(CN3CCN(c4ccc5c(c4)-c4nc(N6C(=O)OC[C@H]6C(F)F)cn4CCO5)CC3)ccc2C1 [Compound 207]
IC50 [1, 5]: 50 to 100 nM | IC50 [2, 6]: < 50 nM

C=CC(=O)Nc1ccc(N2CC(/C=C/c3ccc4c(c3)-c3nc(N5C(=O)OC[C@H]5C(F)F)cn3CCO4)C2)cc1 [Compound 208]
IC50 [1, 5]: 50 to 100 nM | IC50 [2, 6]: < 50 nM

C=CC(=O)Nc1ccc(N2CCC(/C=C/c3ccc4c(c3)-c3nc(N5C(=O)OC[C@H]5C(F)F)cn3CCO4)CC2)cc1 [Compound 209]
IC50 [1, 5]: 50 to 100 nM | IC50 [2, 6]: < 50 nM

C=CC(=O)Nc1ccc(N2CCC(C/C=C/c3ccc4c(c3)-c3nc(N5C(=O)OCC5C(F)F)cn3CCO4)CC2)cc1 (stereo not shown) [Compound 210]
IC50 [1, 5]: 50 to 100 nM | IC50 [2, 6]: < 50 nM

CC(C)(O)C=C(C#N)C(=O)Nc1ccc(N2CC(N3CCN(c4ccc5c(c4)-c4nc(N6C(=O)OC[C@H]6C(F)F)cn4CCO5)CC3)C2)cc1 [Compound 211]
IC50 [1, 5]: < 50 nM | IC50 [2, 6]: < 50 nM
